This note sets out measurements from the supplement of paper PMC9663587.
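Throughout, for GR50, 72 h: breast cancer and non-malignant breast epithelial cell lines, Deep Dye Drop or Dye Drop imaging, nine half-log doses, GR normalized to time-zero plates and DMSO-only controls.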

Compound in the first assay: T1, CC(=O)c1c(C)c2cnc(Nc3ccc(N4CCN(CCOCCOCCOCCNC(=O)COc5cccc6c5C(=O)N(C5CCC(=O)NC5=O)C6=O)CC4)cn3)nc2n(C2CCCC2)c1=O [BSJ-03-123]
Assay: not given
Settings: not given
For 184A1, the “GR50, 72 h” value was determined as 0.00892 µM.

On to AU565, for which the “GR50, 72 h” value is 1.21 µM.

As to HCC1187, the “GR50, 72 h” value worked out at 6.39 µM.

Turning to HTERT_HME1, the “GR50, 72 h” value came to 0.366 µM.

As for MCF10A (GM), the “GR50, 72 h” value is 2.21 µM.

On to PDX1206, for which the “GR50, 72 h” value was 4.35 µM.

Compound in the next assay: CC1=CN2C(=O)C=C(N=C2C(=C1)C(C)NC3=CC=CC=C3)N4CCOCC4 [TGX221]
Assay: not given
Settings: not given
On to 184A1, for which the “GR50, 72 h” value is > 10 µM.

Take AU565: the “GR50, 72 h” value was > 10 µM.

For HTERT_HME1, the “GR50, 72 h” value is > 10 µM.

In the case of PDX1328, the “GR50, 72 h” value was > 10 µM.

Compound in a further assay: CCOc1cc2ncc(C#N)c(Nc3ccc(OCc4ccccn4)c(Cl)c3)c2cc1NC(=O)/C=C/CN(C)C [Neratinib/HKI272]
Assay: not given
Settings: not given
Turning to 184A1, the “GR50, 72 h” value was found to be 0.0293 µM.

For AU565, the “GR50, 72 h” value stood at 0.00121 µM.

Regarding HCC1187, the “GR50, 72 h” value came out at 2.5 µM.

In the case of HTERT_HME1, the “GR50, 72 h” value was 0.151 µM.

In the case of PDX1328, the “GR50, 72 h” value was found to be 0.264 µM.

Compound in a further assay: CN(C)C/C=C/C(=O)Nc1ccc(C(=O)Nc2cccc(Nc3ncc(Cl)c(-c4c[nH]c5ccccc45)n3)c2)cc1 [THZ1]
Assay: not given
Settings: not given
Consider 184A1, for which the “GR50, 72 h” value turned out to be 0.00774 µM.

Take AU565: the “GR50, 72 h” value was 0.0187 µM.

HCC1187: the “GR50, 72 h” value was 0.0149 µM.

HTERT_HME1: the “GR50, 72 h” value came out at 0.00442 µM.

Consider MCF10A (GM), for which the “GR50, 72 h” value was 0.0449 µM.

As to PDX1206, the “GR50, 72 h” value stood at 0.0255 µM.

On to PDX1328, for which the “GR50, 72 h” value stood at 0.0106 µM.

Compound in the next assay: CN(C)C/C=C/C(=O)Nc1ccc(O[C@@H]2CCC[C@@H](Nc3ncc(Cl)c(-c4c[nH]c5ccccc45)n3)C2)cc1 [BSJ-01-175]
Assay: not given
Settings: not given
With 184A1, the “GR50, 72 h” value came out at 0.00519 µM.

As to AU565, the “GR50, 72 h” value amounted to 0.00616 µM.

In the case of HCC1187, the “GR50, 72 h” value came to 0.00928 µM.

As to HTERT_HME1, the “GR50, 72 h” value was determined as 0.00582 µM.

For the cell line MCF10A (GM), the “GR50, 72 h” value is 1.17 µM.

On to PDX1206, for which the “GR50, 72 h” value worked out at 0.0192 µM.

As for PDX1328, the “GR50, 72 h” value was determined as 0.00722 µM.

Compound in another assay: CN(C)CC[C@H](CSc1ccccc1)Nc1ccc(S(=O)(=O)NC(=O)c2ccc(N3CCN(Cc4ccccc4-c4ccc(Cl)cc4)CC3)cc2)cc1[N+](=O)[O-] [ABT-737]
Assay: not given
Settings: not given
As for 184A1, the “GR50, 72 h” value was found to be 3.93 µM.

Turning to AU565, the “GR50, 72 h” value came out at 7.24 µM.

Turning to PDX1328, the “GR50, 72 h” value is 1.56 µM.

Compound in a further assay: CN1CCN(CCOc2cc(OC3CCOCC3)c3c(Nc4c(Cl)ccc5c4OCO5)ncnc3c2)CC1 [Saracatinib/AZD0530]
Assay: not given
Settings: not given
As to 184A1, the “GR50, 72 h” value was determined as 4.62 µM.

In the case of AU565, the “GR50, 72 h” value came out at 4.82 µM.

In the case of HCC1187, the “GR50, 72 h” value came out at 0.258 µM.

For HTERT_HME1, the “GR50, 72 h” value amounted to 7.23 µM.

Consider PDX1328, for which the “GR50, 72 h” value turned out to be 0.987 µM.

Compound in the next assay: CN1CC[C@H](c2c(O)cc(O)c3c(=O)cc(-c4ccccc4Cl)oc23)[C@H](O)C1 [Flavopiridol]
Assay: not given
Settings: not given
Regarding 184A1, the “GR50, 72 h” value turned out to be 0.0383 µM.

For the cell line AU565, the “GR50, 72 h” value amounted to 0.09 µM.

On to HCC1187, for which the “GR50, 72 h” value came out at 0.237 µM.

Take HTERT_HME1: the “GR50, 72 h” value amounted to 0.112 µM.

In the case of MCF10A (GM), the “GR50, 72 h” value turned out to be 0.101 µM.

On to PDX1206, for which the “GR50, 72 h” value was 0.0514 µM.

With PDX1328, the “GR50, 72 h” value turned out to be 0.181 µM.

Compound in a further assay: CNCc1ccc(-c2[nH]c3cc(F)cc4c3c2CCNC4=O)cc1 [Rucaparib]
Assay: not given
Settings: not given
As for 184A1, the “GR50, 72 h” value was > 10 µM.

On to AU565, for which the “GR50, 72 h” value is > 10 µM.

Regarding HCC1187, the “GR50, 72 h” value is > 10 µM.

As to HTERT_HME1, the “GR50, 72 h” value was > 10 µM.

Consider MCF10A (GM), for which the “GR50, 72 h” value is > 10 µM.

PDX1206: the “GR50, 72 h” value is > 10 µM.

Consider PDX1328, for which the “GR50, 72 h” value is > 10 µM.

Compound in another assay: COc1ccc2c(c1)[C@]1(C[C@H]1c1ccc3c(/C=C/c4ccc(CN5C[C@@H](C)O[C@@H](C)C5)cc4)n[nH]c3c1)C(=O)N2
Assay: not given
Settings: not given
With 184A1, the “GR50, 72 h” value turned out to be 0.00198 µM.

AU565: the “GR50, 72 h” value was 0.00339 µM.

For HCC1187, the “GR50, 72 h” value amounted to 0.00763 µM.

As to HTERT_HME1, the “GR50, 72 h” value is 0.0011 µM.

Regarding MCF10A (GM), the “GR50, 72 h” value was 0.00625 µM.

Turning to PDX1206, the “GR50, 72 h” value was determined as 0.00708 µM.

As to PDX1328, the “GR50, 72 h” value came out at 0.00595 µM.

Compound in a further assay: C=CC(=O)Nc1ccc(C(=O)Nc2[nH]nc3c2CN(C(=O)N[C@H](CN(C)C)c2ccccc2)C3(C)C)cc1 [YKL-5-124]
Put plainly: GR value, 72 h; higher = faster growth (1 = untreated, <0 = killing).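 Note: breast cancer and non-malignant breast epithelial lines, nine half-log doses, viable cells counted by Hoechst and LIVE/DEAD dye imaging versus time-zero plates and DMSO controls.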 The following applies: 0.001 µM.
With 184A1, the GR value was found to be 0.287 GR.

For the cell line AU565, the GR value came out at 0.305 GR.

As for HCC1187, the GR value was 0.478 GR.

HTERT_HME1: the GR value came out at 0.41 GR.

For the cell line MCF10A (GM), the GR value was found to be 0.327 GR.

Regarding PDX1206, the GR value came out at 0.821 GR.

As to PDX1328, the GR value was found to be 0.525 GR.

The assay is the same for the next values; noted with them: 0.003162 µM.
For 184A1, the GR value was 0.204 GR.

As to AU565, the GR value worked out at 0.28 GR.

As to HCC1187, the GR value was determined as 0.459 GR.

For the cell line HTERT_HME1, the GR value was 0.245 GR.

For the cell line MCF10A (GM), the GR value was found to be 0.118 GR.

PDX1206: the GR value was found to be 0.683 GR.

On to PDX1328, for which the GR value was 0.572 GR.

The assay is the same for the next values; noted with them: 0.01 µM.
For the cell line 184A1, the GR value is 0.116 GR.

With AU565, the GR value was found to be 0.128 GR.

Consider HCC1187, for which the GR value was determined as 0.209 GR.

HTERT_HME1: the GR value is 0.16 GR.

On to MCF10A (GM), for which the GR value came out at 0.0291 GR.

PDX1206: the GR value worked out at 0.588 GR.

For the cell line PDX1328, the GR value was 0.406 GR.

Staying with this assay, now noted: 0.03162 µM.
For 184A1, the GR value was determined as 0.07 GR.

On to AU565, for which the GR value was 0.0651 GR.

Take HCC1187: the GR value was found to be 0.309 GR.

Turning to HTERT_HME1, the GR value came out at 0.177 GR.

Turning to MCF10A (GM), the GR value was found to be 0.0039 GR.

Consider PDX1206, for which the GR value turned out to be 0.519 GR.

For PDX1328, the GR value is 0.424 GR.

Staying with this assay, now noted: 0.1 µM.
On to 184A1, for which the GR value amounted to 0.0439 GR.

For AU565, the GR value is -0.0212 GR.

HCC1187: the GR value was 0.195 GR.

Turning to HTERT_HME1, the GR value turned out to be 0.0758 GR.

With MCF10A (GM), the GR value is 0.0039 GR.

Turning to PDX1206, the GR value was 0.461 GR.

For PDX1328, the GR value is 0.45 GR.

The assay is the same for the next values; noted with them: 0.3162 µM.
On to 184A1, for which the GR value worked out at 0.0314 GR.

Take AU565: the GR value was -0.0588 GR.

For HCC1187, the GR value came to 0.222 GR.

HTERT_HME1: the GR value came out at 0.0849 GR.

Turning to MCF10A (GM), the GR value was -0.0162 GR.

Turning to PDX1206, the GR value turned out to be 0.444 GR.

As for PDX1328, the GR value was determined as 0.301 GR.

Staying with this assay, now noted: 1 µM.
In the case of 184A1, the GR value stood at 0.0278 GR.

With AU565, the GR value is -0.111 GR.

In the case of HCC1187, the GR value turned out to be 0.0281 GR.

HTERT_HME1: the GR value turned out to be 0.0535 GR.

With MCF10A (GM), the GR value was -0.0398 GR.

Take PDX1206: the GR value stood at 0.323 GR.

As to PDX1328, the GR value turned out to be 0.351 GR.

Still in this assay, the particulars now being: 3.162 µM.
184A1: the GR value is -0.0126 GR.

Turning to AU565, the GR value was -0.172 GR.

Consider HCC1187, for which the GR value was -0.0235 GR.

Take HTERT_HME1: the GR value is -0.036 GR.

For MCF10A (GM), the GR value is -0.0468 GR.

For the cell line PDX1206, the GR value came to 0.205 GR.

Take PDX1328: the GR value is 0.295 GR.

Still in this assay, the particulars now being: 10 µM.
With 184A1, the GR value was -0.0798 GR.

On to AU565, for which the GR value was -0.563 GR.

Consider HCC1187, for which the GR value was -0.529 GR.

For HTERT_HME1, the GR value is -0.144 GR.

Take MCF10A (GM): the GR value is -0.141 GR.

Regarding PDX1206, the GR value is -0.502 GR.

In the case of PDX1328, the GR value is -0.0349 GR.

Compound in another assay: T1, BSJ-03-123
The assay is described as above. The following applies: 0.001 µM.
On to 184A1, for which the GR value was 0.716 GR.

With AU565, the GR value came out at 0.962 GR.

Turning to HCC1187, the GR value worked out at 0.987 GR.

With HTERT_HME1, the GR value turned out to be 0.903 GR.

With MCF10A (GM), the GR value is 0.904 GR.
